Measured values as given in article PMC9694579 (Microorganisms, 2022).
Where two headings read alike, the source gives them in different places.

How the values were obtained:
YFV [1] = assay: microbe, parasite or virus in culture; format: cell-based, Yellow fever virus strain 17D; conditions: for EC50: read-out: Anti-YFV Activity (Huh-7) EC50; for EC90: read-out: Anti-YFV Activity (Huh-7) EC90
in vitro [2] = conditions: African green monkey
in vitro [3] = conditions: human
in vitro [4] = conditions: human; remark: listed apart in the source
Huh-7 cells [5] = conditions: human
in vitro [6] = conditions: human; for CC50: Cytotoxicity CC50 Huh-7
[7] = test system: primary human hepatocytes
YFV 17D = conditions: mouse, in vivo
YFV [8] = assay: microbe, parasite or virus in culture; format: cell-based, Yellow fever virus strain 17D; conditions: Yellow fever virus, Huh-7, 72 h, read-out: EC50 in 3D cultures
in vitro [9] = conditions: human; remark: listed apart in the source
MDM = conditions: human
[10] = test system: primary human hepatocytes; conditions: cited from earlier work
YFV [11] = assay: microbe, parasite or virus in culture; format: cell-based, Yellow fever virus strain 17D; conditions: Yellow fever virus, Macrophage; for EC50: read-out: EC50, YFV replication in MDM
Huh-7 cells [12] = conditions: cited from earlier work
YFV [13] = conditions: mouse, in vivo; cited from earlier work
Huh-7 cells [14] = conditions: human; remark: listed apart in the source
YFV [15] = conditions: cited from earlier work
YFV [16] = assay: microbe, parasite or virus in culture; format: cell-based; conditions: Yellow fever virus, RD, read-out: EC50, inhibition of YFV replication in RD cells
[17] = Yellow fever virus, Huh-7, 72 h

Compound: CC(C)OC(=O)[C@H](C)NP(=O)(OC[C@H]1O[C@@H](n2ccc(=O)[nH]c2=O)C(Cl)(Cl)[C@@H]1O)Oc1ccccc1 (some centres unmarked) [Compound 3]
- EC50 (YFV [1]; [17]): 0.4 ± 0.5 µM
- EC90 (YFV [1]; [17]): 3.2 ± 2.7 µM
- CC50 (in vitro [2]): > 100 µM
- CC50 (in vitro [3]): > 100 µM
- CC50 (in vitro [4]): > 100 µM
- NTP formation in Huh-7 cells (Huh-7 cells [5]): 39.7 pmol / 10^6 cells
- CC50 (in vitro [6]): > 100 µM
- NTP formation in primary human hepatocytes [7]: 622.0 pmol / 10^6 cells

Compound: O=c1ccn([C@@H]2O[C@H](CO)[C@@H](O)[C@]2(F)Br)c(=O)[nH]1 [Compound 8]
- EC50 (YFV [1]; [17]): > 10 µM
- EC90 (YFV [1]; [17]): > 10 µM
- CC50 (in vitro [2]): > 100 µM
- CC50 (in vitro [3]): > 100 µM
- CC50 (in vitro [4]): > 100 µM
- CC50 (in vitro [6]): > 100 µM

Compound: O=c1ccn([C@@H]2O[C@H](CO)[C@@H](O)[C@@]2(F)Br)c(=O)[nH]1 [Compound 10]
- EC50 (YFV [1]; [17]): > 10 µM
- EC90 (YFV [1]; [17]): > 10 µM
- CC50 (in vitro [2]): > 100 µM
- CC50 (in vitro [3]): > 100 µM
- CC50 (in vitro [4]): > 100 µM
- CC50 (in vitro [6]): > 100 µM

Compound: O=c1ccn([C@@H]2O[C@H](CO)[C@@H](O)[C@@]2(F)Cl)c(=O)[nH]1 [Compound 6]
- EC50 (YFV [1]; [17]): > 10 µM
- EC90 (YFV [1]; [17]): > 10 µM
- CC50 (in vitro [2]): > 100 µM
- CC50 (in vitro [3]): > 100 µM
- CC50 (in vitro [4]): > 100 µM
- CC50 (in vitro [6]): > 100 µM

Compound: O=c1ccn([C@@H]2O[C@H](CO)[C@@H](O)C2(Cl)Cl)c(=O)[nH]1 [Compound 2]
- EC50 (YFV [1]; [17]): > 10 µM
- EC90 (YFV [1]; [17]): > 10 µM
- CC50 (in vitro [2]): > 100 µM
- CC50 (in vitro [3]): > 100 µM
- CC50 (in vitro [4]): > 100 µM
- NTP formation in Huh-7 cells (Huh-7 cells [5]): 0.5 pmol / 10^6 cells
- CC50 (in vitro [6]): > 100 µM

Compound: CC(C)OC(=O)[C@H](C)NP(=O)(OC[C@H]1O[C@@H](n2ccc(=O)[nH]c2=O)[C@](F)(Cl)[C@@H]1O)Oc1ccccc1 (some centres unmarked) [Compound 7]
- EC50 (YFV [1]; [17]): > 10 µM
- EC90 (YFV [1]; [17]): > 10 µM
- CC50 (in vitro [2]): > 100 µM
- CC50 (in vitro [3]): > 100 µM
- CC50 (in vitro [4]): > 100 µM

Compound: CC(C)OC(=O)[C@H](C)NP(=O)(OC[C@H]1O[C@@H](n2ccc(=O)[nH]c2=O)[C@](F)(Br)[C@@H]1O)Oc1ccccc1 (some centres unmarked) [Compound 11]
- EC50 (YFV [1]; [17]): > 10 µM
- EC90 (YFV [1]; [17]): > 10 µM
- CC50 (in vitro [2]): > 100 µM
- CC50 (in vitro [3]): > 100 µM
- CC50 (in vitro [4]): > 100 µM

Compound: CC(C)OC(=O)[C@H](C)N[P@](=O)(OC[C@H]1O[C@@H](n2ccc(=O)[nH]c2=O)[C@@](F)(Br)[C@@H]1O)Oc1ccccc1 [Compound 9]
- Immune cell infiltration into the liver (YFV 17D): significantly reduced
- Impact on total circulating leukocytes (YFV 17D): no adverse impact
- Impact on weight loss (YFV 17D): no adverse impact
- Levels of serum transaminase (ALT) (YFV 17D): reduced
- Percentage of mice with absent inflammatory cell infiltration in the liver (YFV 17D): 25%
- Percentage of mice with mild inflammatory cell infiltration in the liver (YFV 17D): 50%
- Percentage of mice with minimum inflammatory cell infiltration in the liver (YFV 17D): 25%
- YFV genome copy levels (virus load) in liver (YFV 17D): significant reduction
- EC50 (YFV [1]; [17]): 0.85 µM
- EC90 (YFV [1]; [17]): 7.8 ± 3.6 µM
- EC50 (YFV [1]): 0.9 ± 0.8 µM
- CC50 (in vitro [2]): > 100 µM
- EC50 (YFV [8]): 3.2 µM
- viability at 100 µM (in vitro [9]): 84.3 ± 0.9%
- CC50 (in vitro [3]): > 100 µM
- Cytotoxicity in MDM (MDM): no notable cytotoxicity up to 100 µM
- CC50 (in vitro [4]): > 100 µM
- viability at 100 µM (in vitro [6]): 87.1%
- NTP formed in primary hepatocytes [10]: 3206 ± 247 pmol/10^6 cells
- EC50 (YFV [11]): 0.4 ± 0.1 µM
- EC90 (YFV [11]; read-out: EC90, YFV replication in MDM): 1.5 ± 0.6 µM
- NTP formed in Huh-7 cells (Huh-7 cells [12]): 646 ± 107 pmol/10^6 cells

Compound: O=c1ccn([C@@H]2O[C@H](CO)[C@@H](O)[C@]2(F)Cl)c(=O)[nH]1 [Compound 4]
- EC50 (YFV [1]; [17]): > 10 µM
- EC90 (YFV [1]; [17]): > 10 µM
- CC50 (in vitro [2]): > 100 µM
- CC50 (in vitro [3]): > 100 µM
- CC50 (in vitro [4]): > 100 µM
- NTP formation in Huh-7 cells (Huh-7 cells [5]): 0.5 pmol / 10^6 cells
- CC50 (in vitro [6]): > 100 µM

Compound: CC(C)OC(=O)[C@H](C)N[P@](=O)(OC[C@H]1O[C@@H](n2ccc(=O)[nH]c2=O)[C@](C)(F)[C@@H]1O)Oc1ccccc1 [Sofosbuvir, sofosbuvir, reference compound]
- EC50 (YFV [1]; [17]): 0.6 ± 0.6 µM
- EC90 (YFV [1]; [17]): 3.5 ± 1.5 µM
- CC50 (in vitro [2]): > 100 µM
- CC50 (in vitro [3]): > 100 µM
- CC50 (in vitro [4]): > 100 µM
- NTP formation in Huh-7 cells (Huh-7 cells [5]): 317.2 pmol / 10^6 cells
- CC50 (in vitro [6]): < 100 µM
- Viral burden in sera, livers, kidneys and spleens (YFV [13]): failed to reduce viral burden
- EC50 (YFV [11]): 0.4 ± 0.3 µM
- NTP formation in primary human hepatocytes [7]: 2230.0 pmol / 10^6 cells
- CC50 (Huh-7 cells [14]): 88.5 ± 11.6 µM

Compound: CC(C)OC(=O)[C@H](C)NP(=O)(OC[C@H]1O[C@@H](n2ccc(=O)[nH]c2=O)[C@@](F)(Cl)[C@@H]1O)Oc1ccccc1 (some centres unmarked) [Compound 5]
- EC50 (YFV [1]; [17]): 0.4 ± 0.2 µM
- EC90 (YFV [1]; [17]): 6.5 ± 2.6 µM
- CC50 (in vitro [2]): > 100 µM
- CC50 (in vitro [3]): > 100 µM
- Reduction of CPE in RD cell line (YFV [15]): < 2%
- CC50 (in vitro [4]): > 100 µM
- NTP formation in Huh-7 cells (Huh-7 cells [5]): 866.2 pmol / 10^6 cells
- EC50 (YFV [16]): 0.5 ± 0.2 µM
- NTP formation in primary human hepatocytes [7]: 5245.0 pmol / 10^6 cells
